# In PubChem BioAssay (NCI):
#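 Briefly, cells in 96-well plates were exposed to five compound concentrations for 48 h, and endpoints were estimated by linear interpolation. TGI: total growth inhibition.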
# Legend:
# Experiment in all cases: NCI anticancer screen, dose series, 48 h
# CAKI-1 renal = system: CAKI-1 renal
# OVCAR-5 ovarian = system: OVCAR-5 ovarian
# MDA-N = system: MDA-N
# A549 NSCLC = system: A549 NSCLC
# UO-31 renal = system: UO-31 renal
# HCT-15 colon = system: HCT-15 colon
# MALME-3M melanoma = system: MALME-3M melanoma
# SR leukemia = system: SR leukemia
# SK-MEL-28 melanoma = system: SK-MEL-28 melanoma
# A498 renal = system: A498 renal
# HCT-116 colon = system: HCT-116 colon
# RXF 393 renal = system: RXF 393 renal
# SF-539 CNS = system: SF-539 CNS
# OVCAR-8 ovarian = system: OVCAR-8 ovarian
# HT29 colon = system: HT29 colon
# RPMI-8226 leukemia = system: RPMI-8226 leukemia
# MCF7 breast = system: MCF7 breast
# MDA-MB-435 = system: MDA-MB-435
# K-562 leukemia = system: K-562 leukemia
# NCI-H522 lung = system: NCI-H522 lung
# SW-620 colon = system: SW-620 colon
# NCI-H460 lung = system: NCI-H460 lung
# TK-10 renal = system: TK-10 renal
# UACC-62 melanoma = system: UACC-62 melanoma
# HCC-2998 colon = system: HCC-2998 colon
# SK-MEL-5 melanoma = system: SK-MEL-5 melanoma
# NCI-H23 lung = system: NCI-H23 lung
# SN12C renal = system: SN12C renal
# DU-145 prostate = system: DU-145 prostate
# 786-0 renal = system: 786-0 renal
# MOLT-4 leukemia = system: MOLT-4 leukemia
# SNB-19 CNS = system: SNB-19 CNS
# HL-60(TB) leukemia = system: HL-60(TB) leukemia
# IGROV1 ovarian = system: IGROV1 ovarian
# COLO 205 colon = system: COLO 205 colon
# SF-295 CNS = system: SF-295 CNS
# KM12 colon = system: KM12 colon
# EKVX NSCLC = system: EKVX NSCLC
# OVCAR-4 ovarian = system: OVCAR-4 ovarian
# U251 CNS = system: U251 CNS
# HOP-62 NSCLC = system: HOP-62 NSCLC
# SNB-75 CNS = system: SNB-75 CNS
# UACC-257 melanoma = system: UACC-257 melanoma
# SK-OV-3 ovarian = system: SK-OV-3 ovarian
# PC-3 prostate = system: PC-3 prostate
# HS 578T breast = system: HS 578T breast
# HOP-92 NSCLC = system: HOP-92 NSCLC
# BT-549 breast = system: BT-549 breast
# SF-268 CNS = system: SF-268 CNS
# OVCAR-3 ovarian = system: OVCAR-3 ovarian
# M14 melanoma = system: M14 melanoma
# NCI/ADR-RES ovarian = system: NCI/ADR-RES ovarian
# MDA-MB-231 breast = system: MDA-MB-231 breast
# ACHN renal = system: ACHN renal
# T-47D breast = system: T-47D breast
# SK-MEL-2 melanoma = system: SK-MEL-2 melanoma
# LOX IMVI melanoma = system: LOX IMVI melanoma
# NCI-H226 lung = system: NCI-H226 lung
# CCRF-CEM leukemia = system: CCRF-CEM leukemia
smiles,measurement,setting,value
O=C1O/C(=C(/Cl)c2cccc3ccccc23)c2ccccc21,TGI,CAKI-1 renal,> 100 µM
same,TGI,OVCAR-5 ovarian,> 100 µM
same,TGI,MDA-N,> 100 µM
same,TGI,A549 NSCLC,> 100 µM
same,TGI,UO-31 renal,> 100 µM
same,TGI,HCT-15 colon,> 100 µM
same,TGI,MALME-3M melanoma,> 100 µM
same,TGI,SR leukemia,> 100 µM
same,TGI,SK-MEL-28 melanoma,> 100 µM
same,TGI,A498 renal,> 100 µM
same,TGI,HCT-116 colon,> 100 µM
same,TGI,RXF 393 renal,> 100 µM
same,TGI,SF-539 CNS,> 100 µM
same,TGI,OVCAR-8 ovarian,> 100 µM
same,TGI,HT29 colon,> 100 µM
same,TGI,RPMI-8226 leukemia,> 100 µM
same,TGI,MCF7 breast,> 100 µM
same,TGI,MDA-MB-435,> 100 µM
same,TGI,K-562 leukemia,> 100 µM
same,TGI,NCI-H522 lung,> 100 µM
same,TGI,SW-620 colon,> 100 µM
same,TGI,NCI-H460 lung,> 100 µM
same,TGI,TK-10 renal,> 100 µM
same,TGI,UACC-62 melanoma,> 100 µM
same,TGI,HCC-2998 colon,> 100 µM
same,TGI,SK-MEL-5 melanoma,> 100 µM
same,TGI,NCI-H23 lung,> 100 µM
same,TGI,SN12C renal,> 100 µM
same,TGI,DU-145 prostate,> 100 µM
same,TGI,786-0 renal,> 100 µM
same,TGI,MOLT-4 leukemia,> 100 µM
same,TGI,SNB-19 CNS,> 100 µM
same,TGI,HL-60(TB) leukemia,> 100 µM
same,TGI,IGROV1 ovarian,> 100 µM
same,TGI,COLO 205 colon,> 100 µM
same,TGI,SF-295 CNS,> 100 µM
same,TGI,KM12 colon,> 100 µM
same,TGI,EKVX NSCLC,> 100 µM
same,TGI,OVCAR-4 ovarian,> 100 µM
same,TGI,U251 CNS,> 100 µM
same,TGI,HOP-62 NSCLC,> 100 µM
same,TGI,SNB-75 CNS,55.2 µM
same,TGI,UACC-257 melanoma,> 100 µM
same,TGI,SK-OV-3 ovarian,> 100 µM
same,TGI,PC-3 prostate,> 100 µM
same,TGI,HS 578T breast,> 100 µM
same,TGI,HOP-92 NSCLC,> 100 µM
same,TGI,BT-549 breast,> 100 µM
same,TGI,SF-268 CNS,> 100 µM
same,TGI,OVCAR-3 ovarian,> 100 µM
same,TGI,M14 melanoma,> 100 µM
CNC(=O)N1CN(c2ccccc2)C2(CCN(CCCC3(c4ccc(F)cc4)OCCO3)CC2)C1=O,TGI,CAKI-1 renal,> 100 µM
same,TGI,OVCAR-5 ovarian,> 100 µM
same,TGI,MDA-N,> 100 µM
same,TGI,A549 NSCLC,> 100 µM
same,TGI,NCI/ADR-RES ovarian,> 100 µM
same,TGI,UO-31 renal,> 100 µM
same,TGI,HCT-15 colon,> 100 µM
same,TGI,MALME-3M melanoma,> 100 µM
same,TGI,SR leukemia,> 100 µM
same,TGI,SK-MEL-28 melanoma,> 100 µM
same,TGI,A498 renal,> 100 µM
same,TGI,HCT-116 colon,> 100 µM
same,TGI,MDA-MB-231 breast,> 100 µM
same,TGI,RXF 393 renal,> 100 µM
same,TGI,SF-539 CNS,> 100 µM
same,TGI,ACHN renal,> 100 µM
same,TGI,HT29 colon,> 100 µM
same,TGI,T-47D breast,> 100 µM
same,TGI,RPMI-8226 leukemia,> 100 µM
same,TGI,SK-MEL-2 melanoma,> 100 µM
same,TGI,MCF7 breast,> 100 µM
same,TGI,MDA-MB-435,> 100 µM
same,TGI,K-562 leukemia,> 100 µM
same,TGI,NCI-H522 lung,> 100 µM
same,TGI,SW-620 colon,> 100 µM
same,TGI,LOX IMVI melanoma,> 100 µM
same,TGI,NCI-H460 lung,> 100 µM
same,TGI,TK-10 renal,> 100 µM
same,TGI,UACC-62 melanoma,> 100 µM
same,TGI,HCC-2998 colon,> 100 µM
same,TGI,SK-MEL-5 melanoma,> 100 µM
same,TGI,NCI-H226 lung,> 100 µM
same,TGI,NCI-H23 lung,> 100 µM
same,TGI,SN12C renal,> 100 µM
same,TGI,CCRF-CEM leukemia,> 100 µM
same,TGI,DU-145 prostate,> 100 µM
same,TGI,786-0 renal,> 100 µM
same,TGI,MOLT-4 leukemia,> 100 µM
same,TGI,SNB-19 CNS,> 100 µM
same,TGI,HL-60(TB) leukemia,> 100 µM
same,TGI,IGROV1 ovarian,> 100 µM
same,TGI,COLO 205 colon,> 100 µM
same,TGI,SF-295 CNS,> 100 µM
same,TGI,KM12 colon,> 100 µM
same,TGI,EKVX NSCLC,> 100 µM
same,TGI,OVCAR-4 ovarian,> 100 µM
same,TGI,U251 CNS,> 100 µM
same,TGI,HOP-62 NSCLC,> 100 µM
same,TGI,SNB-75 CNS,> 100 µM
same,TGI,SK-OV-3 ovarian,> 100 µM
same,TGI,PC-3 prostate,> 100 µM
same,TGI,HS 578T breast,> 100 µM
same,TGI,HOP-92 NSCLC,> 100 µM
same,TGI,SF-268 CNS,> 100 µM
same,TGI,OVCAR-3 ovarian,> 100 µM
same,TGI,M14 melanoma,> 100 µM
CC(C)=CC(=O)C[C@H]1C(=O)O[C@@H]2C[C@H]3C(C)=CC(=O)[C@@H](O)[C@]3(C)[C@H]3[C@@]4(O)OC[C@]32[C@@H]1[C@@H](C)[C@H]4O,TGI,CAKI-1 renal,> 50.2 µM
same,TGI,MDA-N,0.329 µM
same,TGI,NCI/ADR-RES ovarian,11 µM
same,TGI,HCT-15 colon,0.907 µM
same,TGI,MALME-3M melanoma,0.0619 µM
same,TGI,SR leukemia,> 100 µM
same,TGI,SK-MEL-28 melanoma,0.172 µM
same,TGI,A498 renal,1.15 µM
same,TGI,HCT-116 colon,0.114 µM
same,TGI,MDA-MB-231 breast,0.381 µM
same,TGI,ACHN renal,0.834 µM
same,TGI,OVCAR-8 ovarian,0.283 µM
same,TGI,T-47D breast,0.144 µM
same,TGI,RPMI-8226 leukemia,0.0447 µM
same,TGI,SK-MEL-2 melanoma,0.274 µM
same,TGI,MDA-MB-435,0.305 µM
same,TGI,K-562 leukemia,1.3 µM
same,TGI,SW-620 colon,6.26 µM
same,TGI,NCI-H460 lung,0.743 µM
same,TGI,TK-10 renal,0.512 µM
same,TGI,UACC-62 melanoma,0.443 µM
same,TGI,HCC-2998 colon,0.368 µM
same,TGI,SK-MEL-5 melanoma,0.0612 µM
same,TGI,NCI-H226 lung,< 0.0156 µM
same,TGI,NCI-H23 lung,0.042 µM
same,TGI,CCRF-CEM leukemia,0.0918 µM
same,TGI,DU-145 prostate,0.12 µM
same,TGI,786-0 renal,0.838 µM
same,TGI,MOLT-4 leukemia,> 100 µM
same,TGI,HL-60(TB) leukemia,> 100 µM
same,TGI,IGROV1 ovarian,0.941 µM
same,TGI,SF-295 CNS,0.152 µM
same,TGI,KM12 colon,12.8 µM
same,TGI,EKVX NSCLC,4.25 µM
same,TGI,OVCAR-4 ovarian,1.05 µM
same,TGI,U251 CNS,0.137 µM
same,TGI,HOP-62 NSCLC,1.8 µM
same,TGI,SNB-75 CNS,0.103 µM
same,TGI,UACC-257 melanoma,0.608 µM
same,TGI,SK-OV-3 ovarian,4.98 µM
same,TGI,PC-3 prostate,0.241 µM
same,TGI,HS 578T breast,0.258 µM
same,TGI,HOP-92 NSCLC,0.328 µM
same,TGI,BT-549 breast,0.205 µM
same,TGI,SF-268 CNS,0.21 µM
same,TGI,OVCAR-3 ovarian,0.166 µM
same,TGI,M14 melanoma,0.115 µM
COc1ccc(O)c(/C(C)=N/NC(=S)N(C)C)c1,TGI,CAKI-1 renal,> 94.5 µM
same,TGI,OVCAR-5 ovarian,> 100 µM
same,TGI,MDA-N,> 100 µM
same,TGI,A549 NSCLC,> 100 µM
same,TGI,NCI/ADR-RES ovarian,> 100 µM
same,TGI,UO-31 renal,> 100 µM
same,TGI,HCT-15 colon,> 100 µM
same,TGI,MALME-3M melanoma,> 100 µM
same,TGI,SR leukemia,> 100 µM
same,TGI,SK-MEL-28 melanoma,> 100 µM
same,TGI,A498 renal,> 100 µM
same,TGI,HCT-116 colon,> 100 µM
same,TGI,MDA-MB-231 breast,> 100 µM
same,TGI,RXF 393 renal,> 100 µM
same,TGI,SF-539 CNS,> 100 µM
same,TGI,ACHN renal,> 100 µM
same,TGI,OVCAR-8 ovarian,> 100 µM
same,TGI,HT29 colon,> 100 µM
same,TGI,T-47D breast,> 100 µM
same,TGI,RPMI-8226 leukemia,> 100 µM
same,TGI,SK-MEL-2 melanoma,> 100 µM
same,TGI,MDA-MB-435,> 100 µM
same,TGI,K-562 leukemia,> 100 µM
same,TGI,NCI-H522 lung,> 100 µM
same,TGI,SW-620 colon,> 100 µM
same,TGI,LOX IMVI melanoma,22.9 µM
same,TGI,NCI-H460 lung,> 100 µM
same,TGI,UACC-62 melanoma,> 71.6 µM
same,TGI,HCC-2998 colon,> 100 µM
same,TGI,SK-MEL-5 melanoma,> 100 µM
same,TGI,NCI-H226 lung,> 100 µM
same,TGI,NCI-H23 lung,> 88.5 µM
same,TGI,SN12C renal,> 100 µM
same,TGI,CCRF-CEM leukemia,> 100 µM
same,TGI,DU-145 prostate,> 100 µM
same,TGI,786-0 renal,> 100 µM
same,TGI,MOLT-4 leukemia,> 100 µM
same,TGI,SNB-19 CNS,> 100 µM
same,TGI,HL-60(TB) leukemia,> 100 µM
same,TGI,IGROV1 ovarian,> 100 µM
same,TGI,COLO 205 colon,> 100 µM
same,TGI,SF-295 CNS,> 100 µM
same,TGI,KM12 colon,> 100 µM
same,TGI,EKVX NSCLC,> 100 µM
same,TGI,OVCAR-4 ovarian,54.3 µM
same,TGI,U251 CNS,> 100 µM
same,TGI,HOP-62 NSCLC,> 100 µM
same,TGI,SNB-75 CNS,> 100 µM
same,TGI,UACC-257 melanoma,> 100 µM
same,TGI,SK-OV-3 ovarian,> 100 µM
same,TGI,PC-3 prostate,> 100 µM
same,TGI,HS 578T breast,> 100 µM
same,TGI,HOP-92 NSCLC,> 100 µM
same,TGI,BT-549 breast,> 100 µM
same,TGI,SF-268 CNS,> 100 µM
same,TGI,OVCAR-3 ovarian,> 100 µM
same,TGI,M14 melanoma,> 100 µM
